The numbers were not newly measured in patent publication US12565477B2, “Preparation method for chlorinated compound” (JIANGSU KANION PHARMACEUTICAL CO., LTD., priority 2020, dated 2026), which cites them from elsewhere.

Entries after “also recorded” stand apart in the source; their conditions may differ. Where two headings read alike, the source gives them in different places.

The conditions of data set [1]: human; for Percentage of administered dose: 0-144 h, after Lesinurad; for Metabolites found in humans after Lesinurad administration (in words): clinical data.
The conditions of data set [2]: Liver microsome, Monkey, in vitro. A general note: Microsomes from liver hold many membrane-bound enzymes, among them those of drug oxidation.
For data set [3] the following is noted: Hepatocyte, Dog, in vitro.
The conditions of data set [4]: Hepatocyte, Rat, in vitro.
For data set [5] the following is noted: Liver microsome, Human, in vitro.
For data set [6] the following is noted: Liver microsome, Dog, in vitro.
For a further data set, the target named is T1, URAT1 (Homo sapiens, UniProt Q96S37).
T1 construct: URAT1 is an important kidney anion transporter located on the brush border membrane of epithelial cells of renal tubules; host or cells: kidney of treated patients (endogenous)
T1 sequence (Q96S37 1-553): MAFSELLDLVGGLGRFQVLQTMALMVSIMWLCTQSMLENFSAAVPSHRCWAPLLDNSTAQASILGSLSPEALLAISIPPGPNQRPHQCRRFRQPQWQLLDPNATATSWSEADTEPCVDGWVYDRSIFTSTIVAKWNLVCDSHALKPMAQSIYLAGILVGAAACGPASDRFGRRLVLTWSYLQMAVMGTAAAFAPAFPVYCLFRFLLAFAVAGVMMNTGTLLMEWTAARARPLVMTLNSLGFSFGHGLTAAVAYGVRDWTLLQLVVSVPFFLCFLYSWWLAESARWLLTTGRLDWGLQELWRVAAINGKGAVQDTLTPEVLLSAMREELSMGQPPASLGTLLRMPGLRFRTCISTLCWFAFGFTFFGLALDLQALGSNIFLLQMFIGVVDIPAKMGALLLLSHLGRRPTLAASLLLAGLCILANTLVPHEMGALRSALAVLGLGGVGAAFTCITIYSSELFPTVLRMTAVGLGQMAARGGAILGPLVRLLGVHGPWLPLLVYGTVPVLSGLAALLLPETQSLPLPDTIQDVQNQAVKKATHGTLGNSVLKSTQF

The conditions of data set [7]: Hepatocyte, Monkey, in vitro.
For data set [8] the following is noted: Hepatocyte, Human, in vitro.
For data set [9] the following is noted: Liver microsome, Rat, in vitro.

For `O=C(O)CSc1nncn1-c1ccc(C2CC2)c2ccccc12` [Compound M2], the “Percentage of administered dose” value in [1] (Feces) is recorded as 4.8%; in data set [1] (Urine), 0.3%.
As for `O=C(O)CSc1nnc(Br)n1-c1ccc(C2(O)CC2)c2ccccc12` [Compound M3], the values for the Share of M3, M4 and Lesinurad detected (Total 100) in data set [2], in data set [3] and in [4] were 7.9%, “not detected” and “not detected”, respectively. For the same compound, the “Percentage of administered dose” value is on record as 0.3% in data set [1] (Feces) and 12.0% in data set [1] (Urine). Further, the “Metabolites found in humans after Lesinurad administration (in words)” value in [1] is listed as “most predominant metabolites”.
Regarding `O=C(O)CSc1nnc(Br)n1-c1ccc(C2CC2)c2c1C=CC(O)C2O` (stereo not drawn) [Compound M4], the “Share of M3, M4 and Lesinurad detected (Total 100)” value in data set [3] and in data set [4] was “not detected” each time. Further, the figures for the “Percentage of administered dose” value in data set [1] (Feces) and in data set [1] (Urine) were 5.0% and 15.7%, respectively. In addition, in data set [1], the “Metabolites found in humans after Lesinurad administration (in words)” value is “specifically detected in human metabolites; also recorded: most predominant metabolites”.
Consider `O=C(O)CSc1nncn1-c1ccc(C2(O)CC2)c2ccccc12` [Compound M5], for which the “Percentage of administered dose” value in [1] (Feces) is 3.6%.
In the case of `O=C(O)CSc1nnc(Br)n1-c1ccc(C2CC2)c2ccccc12` [Lesinurad], the Share of M3, M4 and Lesinurad detected (Total 100) was 100% in data set [5]; 100% in data set [6]; 92.1% in data set [2]; 98.1% in data set [7]; 100% in data set [3]; 100% in data set [4]. Besides, the Share of M3, M4 and Lesinurad detected (Total 100) in data set [8] is 92.1%; in [9] it was 100%. In addition, the “Additional effect of combined medication versus xanthine oxidase inhibitor alone” value on URAT1 (Lesinurad 200 mg/day with XOI) was “not very significant”. In addition, the “Toxic side effects (kidney-related adverse events, especially kidney stone)” value on URAT1 (Lesinurad 400 mg/day) is on record as “significantly increased toxic side effects”. In addition, the “Additional effect of combined medication” value at URAT1 (Lesinurad 400 mg/day (high dose) with XOI) was “higher additional effect”. For the same compound, the “Percentage of administered dose” value in data set [1] (Feces) was 1.5%; in [1] (Urine) it was 31.3%.
